# Results taken from US20170340693A1, “DISLODGEMENT AND RELEASE OF HSC USING ALPHA 9 INTEGRIN ANTAGONIST AND CXCR4 ANTAGONIST” (COMMONWEALTH SCIENTIFIC AND INDUSTRIAL RESEARCH ORGANISATION, priority 2014, published 2017).
# Structures can show the parent of a compound that is named as a salt.
# B1: G-CSF: recombinant granulocyte-colony stimulating factor (protein, UniProt P09919 31-207, looked up)
# Granulocyte …: TPLGPASSLPQSFLLKCLEQVRKIQGDGAALQEKLVSECATYKLCHPEELVLLGHSLGIPWAPLSSCPSQALQLAGCLSQLHSGLFLYQGLLQALEGISPELGPTLDTLQLDVADFATTIWQQMEELGMAPALQPTQGAMPAFASAFQRRAGGVLVASHLQSFLEVSYRVLRHLAQP
# Legend:
# α9β1 = target: T1, α9β1 (Homo sapiens, UniProt P05556+Q13797); assay: Inhibition of R-BC154 (IXb) binding, transduced LN18 cells and CHO cells, flow cytometry; parameters: species or system human and murine; conditions: R-BC154 100 nM, antagonist 1 μM, 1 mM CaCl2MgCl2, 0° C. 30 min
# T1 construct: expressed in transfected cells; host or cells: LN18 (ATCC CRL-2610), retrovirally transduced; endogenous α4 silenced with pSM2c-shITGA4
# Method: (§1) For the assessment of α9β1 contribution to R-BC154 (IXb) binding, human and murine cells were stained with R-BC154 (100 nM) in the absence of competing antagonist or in the presence of excess amounts of the selective α4β1 antagonist BIO5192 (1 μM) or dual α4β1/α9β1 antagonist BOP (1 μM) in PBS containing 0.5% BSA and 1 mM CaCl2MgCl2 at 0° C. for 30 min. Cells were washed, immunolabelled as described above and analysed by flow cytometry. The contribution of α9β1 binding was calculated by measuring the difference in MFI between R-BC154 (IXb)+BIO5192 and +BOP and expressed as a % of R-BC154 (IXb) alone.
# [1] = test system: cord blood (CB) mononuclear cells (MNC); assay: R-BC154 (IXb) binding to cord blood mononuclear cell populations, flow cytometry; assay type: cell-based, human; conditions: R-BC154 (100 nM) in the presence of excess selective α4β1 antagonist BIO5192 (1 μM) or dual α4β1/α9β1 antagonist BOP (1 μM)
# Method: For in vitro labelling experiments, 5×10^6 BM cells from C57 mice, conditional α4^−/−/α9^−/− mice and humanised NODSCIDIL2Rγ^−/− mice and human cord blood MNCs were treated with R-BC154 (IXb) (up to 300 nM) in PBS (0.5% BSA) or TBS (0.5% BSA) containing either 1 mM CaCl2/MgCl2 (activating) or 10 mM EDTA (deactivating) at 40×10^6 cells/ml for 20 mins at 4° C. Cells were washed with cold PBS (2% FBS) and then immunolabelled as described in “Antibody Cocktails” prior to flow cytometric analysis. For in vivo experiments, C57BL/6 mice, α4^−/−/α9^−/− vav-cre mice and humanised NODSCIDIL2Rγ^−/− mice received either intravenous or subcutaneous injections of R-BC154 (IXb) (5-10 mg/kg) at 100 ul/10 gm mouse weight and analysed as described above.
# as §1
# [2] = test system: progenitors (LSK) and HSC (LSKSLAM) in peripheral blood; assay: HSC mobilization to peripheral blood in mice; assay type: in vivo
# Method: (§2) For mobilization experiments, all mice received subcutaneous injections at 100 μl/10 gm body weight and PB was harvested by throat bleed using EDTA coated syringes.
# (a) R-BC154 (IXb) and BOP. Mice received a single injection of freshly prepared solutions of R-BC154 (IXb) and BOP in saline at the doses indicated before PB was harvested by throat bleed at the times indicated.
# (b) G-CSF. Mice received G-CSF at 250 μg/kg twice daily (500 ug/kg/day), 6-8 hours apart for 4 consecutive days. Groups receiving G-CSF and BOP received the standard G-CSF regime as described above followed by a single injection of BOP 1 h prior to harvest. Control mice received an equal volume of saline.
# (§3) Mice received subcutaneous injections at 100 μl/10 gm body weight of a single injection of BOP (up to 15 mg/kg) for various timeframes, a single BIO5192 injection at 1 mg/kg for 1 hour, a single AMD3100 injection at 3 mg/kg for 1 hour (mice also receiving BOP or BIO15192 were injected with a single dose of BOP or BIO15192 1 hour prior to harvest), or G-CSF at 250 μg/kg twice daily (500 μg/kg/day), 6-8 hours apart for 4 consecutive days (mice also receiving BOP and/or AMD3100 were injected with a single dose of BOP and/or AMD3100 1 h prior to harvest). Control mice received an equivalent volume of saline or 10% HPβCD/saline where appropriate.
# α4β1 = α4β1 (Homo sapiens, UniProt P05556+P13612); conditions: cited from earlier work
# WBC in peripheral blood = assay: PB white blood cell / lymphocyte content after mobilization; assay type: in vivo, mice; conditions: for WBC counts: peripheral blood after administration
# Method: as §2, §3
# LPP-CFC and HPP-CFC = assay: Low- and high-proliferative potential colony-forming cell assays of mobilized PB; parameters: species or system mice; conditions: mouse, in vivo
# Method: Low- and high-proliferative potential colony-forming cells (LPP-CFC and HPP-CFC, respectively) were assayed as previously described in J. Grassinger et al Cytokine, 2012, 58, 218-225 and Bartelmez, S. H. et al Experimental hematology 17, 240-245 (1989). Briefly, mobilized PB were lysed and 4000 WBCs were plated in 35 mm Petri dishes in a double-layer nutrient agar culture system containing recombinant mouse stem cell factor and recombinant human colony-stimulating factor-1, interleukin-1α (IL-1α), and IL-3. Cultures were incubated at 37° C. in a humidified incubator at 5% O2, 10% CO2, 85% N2. LPP-CFC and HPP-CFC were enumerated at 14 days of incubation as previously described in J. Grassinger, et al (2012).
# [3] = test system: human WBC and human CD34+ stem and progenitors; assay: Mobilization of humanised NSG (huNSG) mice; assay type: in vivo; conditions: single dose, G-CSF multiple doses for 4-days
# Text: Humanised NSG mice were generated by tail vein injection of freshly sorted cord blood CD34^+ cells (>150 k) with 2×10^6 irradiated mononuclear support cells. After 4-weeks post-transplantation, NSG mice were eyebled and assessed for huCD45 and muCD45. Under these conditions, >90% humanisation was achieved as determined by flow cytometric analysis based on % huCD45 relative to total % CD45. Humanised NSG mice were given at least 1 week to recover prior to experimentation. Mice were mobilized under the relevant conditions specified in “Mobilization protocols” and PB subsequently collected by throatbleed, lysed and immunolabelled as described in “Antibody cocktails”.
# as §3
# α9β1 integrin = α9β1 integrin (Homo sapiens, UniProt P05556+Q13797); assay: Inhibition of integrin binding to VCAM-1 and Opn in vitro
# α4β1 integrin = α4β1 integrin (Homo sapiens, UniProt P05556+P13612); assay: as above
# endosteal LSK = assay: In vivo BOP binding to endosteal versus central progenitors; parameters: species or system mice; conditions: mouse
# Text: Data is pooled from two independent experiments. n>6 (e) Analysis of in vivo BOP binding to endosteal versus central progenitors (LSK) and HSC (LSKSLAM) following the administration of BOP alone or BOP in combination with AMD3100. […] P<0.05
# α4β1 or α9β1 LN18 cells = conditions: Pepinsky et al (2002); cited from earlier work
# T1 sequence (Q13797 30-1035): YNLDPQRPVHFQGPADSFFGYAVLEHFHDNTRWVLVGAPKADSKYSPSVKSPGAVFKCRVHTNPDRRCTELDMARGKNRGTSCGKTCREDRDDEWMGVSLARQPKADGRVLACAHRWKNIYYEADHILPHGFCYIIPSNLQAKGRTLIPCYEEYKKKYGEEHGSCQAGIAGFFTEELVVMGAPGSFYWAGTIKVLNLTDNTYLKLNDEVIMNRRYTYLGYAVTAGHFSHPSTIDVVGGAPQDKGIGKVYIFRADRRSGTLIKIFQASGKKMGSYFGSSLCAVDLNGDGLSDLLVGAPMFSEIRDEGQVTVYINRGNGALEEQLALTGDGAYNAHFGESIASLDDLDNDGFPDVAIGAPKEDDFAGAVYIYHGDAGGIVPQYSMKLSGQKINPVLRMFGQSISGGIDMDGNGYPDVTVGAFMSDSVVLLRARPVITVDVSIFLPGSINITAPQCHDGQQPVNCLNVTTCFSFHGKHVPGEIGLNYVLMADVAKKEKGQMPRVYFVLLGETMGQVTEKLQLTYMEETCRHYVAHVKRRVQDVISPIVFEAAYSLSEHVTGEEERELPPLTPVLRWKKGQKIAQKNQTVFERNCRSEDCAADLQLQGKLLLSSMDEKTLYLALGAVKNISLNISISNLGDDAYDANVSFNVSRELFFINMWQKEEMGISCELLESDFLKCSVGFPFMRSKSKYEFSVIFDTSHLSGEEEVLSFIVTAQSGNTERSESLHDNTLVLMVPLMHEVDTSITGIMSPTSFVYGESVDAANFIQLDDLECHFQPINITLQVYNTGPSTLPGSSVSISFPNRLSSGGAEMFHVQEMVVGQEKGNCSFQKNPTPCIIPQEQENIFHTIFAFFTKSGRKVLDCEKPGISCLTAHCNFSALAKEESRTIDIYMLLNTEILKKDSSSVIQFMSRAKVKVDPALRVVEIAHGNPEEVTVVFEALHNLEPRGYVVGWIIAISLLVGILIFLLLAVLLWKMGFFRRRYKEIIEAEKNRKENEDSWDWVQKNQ
# T1 sequence (P05556 21-798): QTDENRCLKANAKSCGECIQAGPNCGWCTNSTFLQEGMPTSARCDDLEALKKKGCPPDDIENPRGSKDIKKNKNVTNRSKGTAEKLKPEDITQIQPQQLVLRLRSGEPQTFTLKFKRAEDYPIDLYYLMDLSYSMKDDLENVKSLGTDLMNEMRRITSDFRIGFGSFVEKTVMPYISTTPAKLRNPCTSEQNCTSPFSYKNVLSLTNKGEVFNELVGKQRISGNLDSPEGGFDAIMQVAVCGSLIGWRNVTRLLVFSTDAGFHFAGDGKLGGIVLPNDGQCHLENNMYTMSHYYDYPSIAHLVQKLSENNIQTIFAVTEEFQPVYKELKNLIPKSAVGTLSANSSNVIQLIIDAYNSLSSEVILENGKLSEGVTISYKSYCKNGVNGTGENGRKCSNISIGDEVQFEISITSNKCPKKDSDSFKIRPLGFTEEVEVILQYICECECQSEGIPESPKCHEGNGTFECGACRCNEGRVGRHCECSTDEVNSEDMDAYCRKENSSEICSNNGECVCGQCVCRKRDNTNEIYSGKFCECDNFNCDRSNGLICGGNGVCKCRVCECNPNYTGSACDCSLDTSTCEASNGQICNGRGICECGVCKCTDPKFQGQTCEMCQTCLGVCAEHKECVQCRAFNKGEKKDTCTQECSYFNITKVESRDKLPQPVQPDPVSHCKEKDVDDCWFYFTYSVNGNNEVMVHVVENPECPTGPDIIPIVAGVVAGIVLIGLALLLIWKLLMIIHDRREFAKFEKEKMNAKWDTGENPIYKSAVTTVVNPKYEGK
# Sequence of α4β1 (P13612 34-1032): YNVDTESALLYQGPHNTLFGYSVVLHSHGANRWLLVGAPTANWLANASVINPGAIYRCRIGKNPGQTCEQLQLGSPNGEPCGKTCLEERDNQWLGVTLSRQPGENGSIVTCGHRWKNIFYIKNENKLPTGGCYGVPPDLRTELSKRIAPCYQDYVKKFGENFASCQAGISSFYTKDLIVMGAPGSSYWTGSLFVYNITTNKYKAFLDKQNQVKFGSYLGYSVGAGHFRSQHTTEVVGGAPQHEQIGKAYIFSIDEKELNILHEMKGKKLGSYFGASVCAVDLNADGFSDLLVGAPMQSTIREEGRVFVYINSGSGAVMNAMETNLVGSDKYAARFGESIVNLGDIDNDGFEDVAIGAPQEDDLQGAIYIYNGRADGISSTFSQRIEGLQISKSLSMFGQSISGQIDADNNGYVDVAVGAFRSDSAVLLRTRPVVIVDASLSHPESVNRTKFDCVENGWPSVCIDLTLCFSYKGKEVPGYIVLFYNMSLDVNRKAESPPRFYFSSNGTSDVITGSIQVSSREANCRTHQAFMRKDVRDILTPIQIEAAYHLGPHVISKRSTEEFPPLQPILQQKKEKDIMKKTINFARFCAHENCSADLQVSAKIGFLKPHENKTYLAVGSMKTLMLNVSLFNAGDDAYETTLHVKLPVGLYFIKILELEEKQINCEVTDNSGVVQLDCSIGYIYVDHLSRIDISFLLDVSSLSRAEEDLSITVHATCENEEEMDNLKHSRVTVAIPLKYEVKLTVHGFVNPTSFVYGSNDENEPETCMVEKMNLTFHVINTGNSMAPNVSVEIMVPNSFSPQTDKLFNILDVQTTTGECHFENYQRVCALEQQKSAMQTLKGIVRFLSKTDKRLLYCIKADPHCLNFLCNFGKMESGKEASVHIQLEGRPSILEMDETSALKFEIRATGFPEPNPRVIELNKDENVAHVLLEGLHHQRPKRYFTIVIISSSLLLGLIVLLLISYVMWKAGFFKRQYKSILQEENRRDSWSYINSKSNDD
# Sequence of α4β1 (P05556 21-798): as the sequence (P05556 21-798) above
# Sequence of α4β1 integrin (P13612 34-1032): as the sequence (P13612 34-1032) above
# Sequence of α4β1 integrin (P05556 21-798): as the sequence (P05556 21-798) above
# Sequence of α9β1 integrin (Q13797 30-1035): as the sequence (Q13797 30-1035) above
# Sequence of α9β1 integrin (P05556 21-798): as the sequence (P05556 21-798) above
molecule,measurement,setting,value
"Cc1ccccc1NC(=O)Nc1ccc(CC(=O)N(C)[C@@H](CC(C)C)C(=O)NCC[C@H](NC(=O)[C@@H]2CCCN2S(=O)(=O)c2cc(Cl)cc(Cl)c2)C(=O)O)cc1 [BIO5192, reference compound]",inhibition of R-BC154 (IXb) binding to α9β1,α9β1,did not inhibit
same,inhibition of R-BC154 (IXb) binding to CB HSC and progenitors,[1],partial inhibition
same,inhibition of R-BC154 (IXb) binding to CB lineage committed cells,[1],complete inhibition
same,"increases in WBC counts, progenitors (LSK) and HSC (LSKSLAM) in the PB","[2]; Intravenous administration, alone",moderate increases
same,Kd,α4β1,< 0.01 nM
"c1cc(CN2CCCNCCNCCCNCC2)ccc1CN1CCCNCCNCCCNCC1 [AMD3100, I,r-[I,4-Phenylenebis(methylene)]bis [1,4,8,11-tetraazacyclotetradecane]octohydrobromide dehydrate, reference compound]",increase in the proportion of progenitors (LSK cells) in the PB relative to BOP,"[2]; mouse, in vivo",comparable increases
same,WBC counts,WBC in peripheral blood,7.8±1.5 ×10^6/ml
same,HPP-CFC content of mobilized PB relative to the saline control,LPP-CFC and HPP-CFC,greater
same,LPP-CFC content of mobilized PB relative to the saline control,LPP-CFC and HPP-CFC,greater
same,increase in PB human WBC or human CD34 stem and progenitors,[3],did not result in a significant increase
"O=C(O)[C@H](Cc1ccc(OC(=O)N2CCCC2)cc1)NC(=O)[C@@H]1CCCN1S(=O)(=O)c1ccccc1 [BOP, N-(Benzenesulfonyl)-L-prolyl-L-O-(1-pyrrolidinylcarbonyl)tyrosine]",inhibition of R-BC154 (IXb) binding to α9β1,α9β1,> 95%
same,"inhibitory potency, α9β1 binding to VCAM-1 and Opn",α9β1 integrin,nanomolar inhibitory potencies
same,"inhibitory potency, α4β1 binding to VCAM-1 and Opn",α4β1 integrin,nanomolar inhibitory potencies
same,inhibition of R-BC154 (IXb) binding to all CB cell populations,[1],complete inhibition
same,time of peak PB HSC,"[2]; mouse, in vivo",1 h
same,increase in the proportion of HSC (LSKSLAM cells) in the PB relative to AMD3100,[2]; p<0.05,significantly greater increase
same,increase in PB progenitors (LSK) and HSC (LSKSLAM),"[2]; single agent, single dose","rapid, significant and dose dependent increase"
same,return of PB progenitors and HSC to baseline post-administration,[2]; single dose,≤ 4 h
same,time of peak PB progenitors and HSC after a single dose,[2]; subcutaneous,60 min
same,WBC counts,WBC in peripheral blood,7.0±0.8 ×10^6/ml
same,total PB lymphocytes decreased to baseline,WBC in peripheral blood; single dose,≤ 18 h
same,HPP-CFC content of mobilized PB relative to the saline control,LPP-CFC and HPP-CFC,greater
same,LPP-CFC content of mobilized PB relative to the saline control,LPP-CFC and HPP-CFC,greater
same,increase in PB human WBC or human CD34 stem and progenitors,[3],did not result in a significant increase
same,binding of BOP to endosteal LSK relative to their central counterparts in vivo,endosteal LSK,significantly greater binding of BOP
same,off-rates for α9β1 compared to α4β1,α4β1 or α9β1 LN18 cells,significantly reduced off-rates
B1,"progenitors mobilized, G-CSF alone versus single dose of BOP and AMD3100",[2]; 4-days of G-CSF,significantly greater number of progenitors
same,increase in PB human WBC or human CD34 stem and progenitors,[3],did not result in a significant increase
